Columns and labels:
Human neurokinin (NK1) = biological target: T1, Human neurokinin (NK1) (Homo sapiens, UniProt P25103); assay: Radioligand binding, human neurokinin NK1 membranes, filtration, [125I]-Substance P; conditions: compound at 10 μM, [125I]-Substance P; for A8: inhibition of radioligand binding: filtration
T1 construct: purchased Perkin Elmer Biosignal
Procedure, shortened: (§1)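 Percent inhibition of radioligand binding measured on recombinant human membranes: NK1 with [125I]-Substance P, KOP with [3H]-Diprenorphine. Incubation 1 h at room temperature, then harvest onto 0.3% PEI-soaked filters, cold Tris-HCl pH 7.4 washes and scintillation counting; non-specific binding from reference ligand wells.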

Human κ-Opioid (KOP) = biological target: T2, Human κ-Opioid (KOP) (Homo sapiens, UniProt P41145); assay: Radioligand binding, human κ-opioid (KOP) membranes, filtration, [3H]-Diprenorphine; conditions: compound at 10 μM, [3H]-Diprenorphine; for A2: inhibition of radioligand binding: filtration
T2 construct: purchased Perkin Elmer Biosignal
T2 sequence (P41145 whole entry): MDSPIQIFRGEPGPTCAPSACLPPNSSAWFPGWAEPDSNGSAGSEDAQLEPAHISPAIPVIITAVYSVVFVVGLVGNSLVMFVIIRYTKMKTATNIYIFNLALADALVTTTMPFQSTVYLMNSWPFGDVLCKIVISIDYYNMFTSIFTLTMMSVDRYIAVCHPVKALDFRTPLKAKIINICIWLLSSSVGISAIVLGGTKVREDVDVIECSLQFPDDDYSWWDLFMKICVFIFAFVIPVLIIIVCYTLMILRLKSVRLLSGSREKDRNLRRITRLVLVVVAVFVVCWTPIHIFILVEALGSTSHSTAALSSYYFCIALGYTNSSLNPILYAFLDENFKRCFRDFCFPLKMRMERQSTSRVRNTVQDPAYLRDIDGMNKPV
Procedure, shortened: as §1

Human δ-opioid (DOP) = biological target: T3, Human δ-opioid (DOP) (Homo sapiens, UniProt P41143); assay: Radioligand binding, human δ-opioid (DOP) membranes, FlashPlate, [3H]-Bremazocine; conditions: compound at 10 μM, [3H]-Bremazocine; for A1: inhibition of radioligand binding: FlashPlate
T3 construct: purchased Perkin Elmer Biosignal
T3 sequence (P41143 whole entry): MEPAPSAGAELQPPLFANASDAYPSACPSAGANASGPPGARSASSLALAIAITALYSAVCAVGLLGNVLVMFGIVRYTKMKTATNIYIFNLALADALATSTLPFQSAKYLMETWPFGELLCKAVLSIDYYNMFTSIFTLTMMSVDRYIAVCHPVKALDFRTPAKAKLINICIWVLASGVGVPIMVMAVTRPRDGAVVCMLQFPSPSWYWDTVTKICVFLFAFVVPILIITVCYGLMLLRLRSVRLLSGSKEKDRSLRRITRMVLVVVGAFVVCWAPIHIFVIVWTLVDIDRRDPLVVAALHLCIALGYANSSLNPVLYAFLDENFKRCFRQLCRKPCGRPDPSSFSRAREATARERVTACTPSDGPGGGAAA
Procedure, shortened: (§2)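 Cloned human receptor membranes were coated onto FlashPlate wells and incubated with radioligand and compound (added from a 0.5 mM DMSO daughter plate) for 1 hour at room temperature in the dark. Scintillation counting gave percent inhibition, with DMSO defining total and reference ligand defining non-specific binding.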

Human Melanocortin (MC3) = biological target: T4, Human Melanocortin (MC3) (Homo sapiens, UniProt P41968); assay: Radioligand binding, human melanocortin MC3 membranes, FlashPlate, [125I]-NDP-αMSH; conditions: compound at 10 μM, [125I]-NDP-αMSH; for A3: inhibition of radioligand binding: FlashPlate
T4 construct: purchased Perkin Elmer Biosignal
T4 sequence (P41968 whole entry): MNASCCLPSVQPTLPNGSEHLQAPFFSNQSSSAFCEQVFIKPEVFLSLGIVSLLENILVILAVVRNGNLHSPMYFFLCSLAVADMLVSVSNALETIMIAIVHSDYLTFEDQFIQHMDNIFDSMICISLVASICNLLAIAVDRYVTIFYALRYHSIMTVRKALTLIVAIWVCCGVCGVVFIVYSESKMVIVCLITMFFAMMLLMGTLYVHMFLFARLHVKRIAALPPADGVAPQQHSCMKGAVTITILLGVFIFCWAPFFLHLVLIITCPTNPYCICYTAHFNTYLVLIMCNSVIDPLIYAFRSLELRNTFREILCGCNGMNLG
Procedure, shortened: as §2

Human Melanocortin (MC4) = biological target: T5, Human Melanocortin (MC4) (Homo sapiens, UniProt P32245); assay: Radioligand binding, human melanocortin MC4 membranes, FlashPlate, [125I]-NDP-αMSH; conditions: compound at 10 μM, [125I]-NDP-αMSH; for A4: inhibition of radioligand binding: FlashPlate
T5 construct: purchased Perkin Elmer Biosignal
T5 sequence (P32245 whole entry): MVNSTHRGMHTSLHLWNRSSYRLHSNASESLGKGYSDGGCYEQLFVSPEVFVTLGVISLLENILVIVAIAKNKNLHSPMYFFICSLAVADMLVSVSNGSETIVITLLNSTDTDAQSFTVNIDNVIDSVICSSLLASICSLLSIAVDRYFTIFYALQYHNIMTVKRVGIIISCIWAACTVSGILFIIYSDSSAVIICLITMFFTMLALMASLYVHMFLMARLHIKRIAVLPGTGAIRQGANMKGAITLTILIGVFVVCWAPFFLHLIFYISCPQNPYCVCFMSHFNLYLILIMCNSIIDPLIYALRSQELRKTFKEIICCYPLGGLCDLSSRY
Procedure, shortened: as §2

Human melanocortin (MC5) = biological target: T6, Human melanocortin (MC5) (Homo sapiens, UniProt P33032); assay: Radioligand binding, human melanocortin MC5 membranes, FlashPlate, [125I]-NDP-αMSH; conditions: compound at 10 μM, [125I]-NDP-αMSH; for A5: inhibition of radioligand binding: FlashPlate
T6 construct: purchased Perkin Elmer Biosignal
T6 sequence (P33032 whole entry): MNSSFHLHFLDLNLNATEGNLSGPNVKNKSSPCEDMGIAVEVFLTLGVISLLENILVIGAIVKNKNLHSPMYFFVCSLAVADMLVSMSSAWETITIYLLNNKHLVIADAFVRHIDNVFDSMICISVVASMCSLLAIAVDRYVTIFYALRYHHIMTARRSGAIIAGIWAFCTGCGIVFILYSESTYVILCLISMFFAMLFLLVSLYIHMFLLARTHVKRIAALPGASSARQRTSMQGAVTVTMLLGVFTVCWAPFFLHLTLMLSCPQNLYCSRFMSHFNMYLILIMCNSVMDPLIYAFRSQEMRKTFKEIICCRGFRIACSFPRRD
Procedure, shortened: as §2

[1] = biological target: T7, Human melanin-concentrating hormone (MCH1) (Homo sapiens, UniProt Q99705); assay: Radioligand binding, human melanin-concentrating hormone MCH1 membranes, FlashPlate, [125I]-S36057; conditions: compound at 10 μM; for A6: inhibition of radioligand binding: [125I]-S36057, FlashPlate
T7 construct: purchased Perkin Elmer Biosignal
T7 sequence (Q99705 whole entry): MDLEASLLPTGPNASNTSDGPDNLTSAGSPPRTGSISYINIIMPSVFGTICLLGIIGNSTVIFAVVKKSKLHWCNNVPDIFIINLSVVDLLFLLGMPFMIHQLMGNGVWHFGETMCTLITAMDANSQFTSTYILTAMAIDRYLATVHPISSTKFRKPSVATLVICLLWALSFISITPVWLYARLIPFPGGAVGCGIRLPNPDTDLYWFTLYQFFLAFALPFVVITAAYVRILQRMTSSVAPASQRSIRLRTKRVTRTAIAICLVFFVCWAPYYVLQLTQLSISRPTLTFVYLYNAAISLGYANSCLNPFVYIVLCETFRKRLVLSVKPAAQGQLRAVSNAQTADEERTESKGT
Procedure, shortened: as §2

Human μ-opioid (MOP) = biological target: T8, Human μ-opioid (MOP) (Homo sapiens, UniProt P35372); assay: Radioligand binding, human μ-opioid (MOP) membranes, FlashPlate, [3H]-Naloxone; conditions: compound at 10 μM, [3H]-Naloxone; for A7: inhibition of radioligand binding: FlashPlate
T8 construct: purchased Perkin Elmer Biosignal
T8 sequence (P35372 whole entry): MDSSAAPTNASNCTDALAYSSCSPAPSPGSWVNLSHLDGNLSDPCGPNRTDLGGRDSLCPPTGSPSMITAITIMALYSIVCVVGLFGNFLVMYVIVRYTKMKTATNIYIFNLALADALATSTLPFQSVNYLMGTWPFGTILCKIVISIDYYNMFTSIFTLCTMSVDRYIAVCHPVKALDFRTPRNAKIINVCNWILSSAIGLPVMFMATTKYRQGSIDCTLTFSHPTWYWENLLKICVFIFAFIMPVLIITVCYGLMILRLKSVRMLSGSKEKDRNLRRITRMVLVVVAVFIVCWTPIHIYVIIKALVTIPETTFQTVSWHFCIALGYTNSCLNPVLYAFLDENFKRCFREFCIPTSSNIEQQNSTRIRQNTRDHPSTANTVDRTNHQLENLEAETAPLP
Procedure, shortened: as §2

[2] = biological target: T9, Human neuropeptide Y (NPY-Y1) (Homo sapiens, UniProt P25929); assay: Radioligand binding, human neuropeptide Y NPY-Y1 membranes, FlashPlate, [125I]-PYY; conditions: compound at 10 μM, [125I]-PYY; for A9: inhibition of radioligand binding: FlashPlate
T9 construct: purchased Perkin Elmer Biosignal
T9 sequence (P25929 1-384): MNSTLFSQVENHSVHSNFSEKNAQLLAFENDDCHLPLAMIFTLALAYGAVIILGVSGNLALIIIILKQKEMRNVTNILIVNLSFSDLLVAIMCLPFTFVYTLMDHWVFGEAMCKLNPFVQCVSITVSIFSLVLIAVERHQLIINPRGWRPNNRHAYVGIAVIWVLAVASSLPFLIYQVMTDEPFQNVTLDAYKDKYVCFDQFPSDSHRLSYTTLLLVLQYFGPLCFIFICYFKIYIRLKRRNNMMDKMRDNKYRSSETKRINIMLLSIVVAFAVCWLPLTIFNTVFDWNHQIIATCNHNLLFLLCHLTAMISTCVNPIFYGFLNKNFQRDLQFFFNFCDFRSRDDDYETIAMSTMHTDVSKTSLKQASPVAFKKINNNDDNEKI
Procedure, shortened: as §2

Mouse urotensin (mUR2) = biological target: T10, Mouse urotensin (mUR2) (Mus musculus, UniProt Q8VIH9); assay: Radioligand binding, mouse urotensin mUR2 membranes, FlashPlate, [125I]-Urotensin II; conditions: compound at 10 μM, [125I]-Urotensin II; for A11: inhibition of radioligand binding: FlashPlate
T10 construct: purchased Perkin Elmer Biosignal
T10 sequence (Q8VIH9 1-385): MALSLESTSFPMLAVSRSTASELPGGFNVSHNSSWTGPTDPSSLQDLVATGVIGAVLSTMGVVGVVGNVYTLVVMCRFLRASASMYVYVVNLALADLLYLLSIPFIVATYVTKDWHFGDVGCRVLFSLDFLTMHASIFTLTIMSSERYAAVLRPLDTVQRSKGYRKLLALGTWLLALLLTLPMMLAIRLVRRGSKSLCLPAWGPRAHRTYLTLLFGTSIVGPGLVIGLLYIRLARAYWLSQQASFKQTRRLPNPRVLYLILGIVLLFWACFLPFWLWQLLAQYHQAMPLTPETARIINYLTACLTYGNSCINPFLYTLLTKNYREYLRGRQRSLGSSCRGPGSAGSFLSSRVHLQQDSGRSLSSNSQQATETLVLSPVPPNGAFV
Procedure, shortened: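 Cloned mouse urotensin (mUR2) receptor membranes from Perkin Elmer Biosignal were immobilized in FlashPlate microplates using a proprietary coating. Each well got 19.5 μl buffer, then 0.5 μl of DMSO, reference ligand, or compound. Adding 5 μl of [125I]-Urotensin II, diluted to 5× final concentration in binding buffer, started binding. Plates were sealed with TopSeal-A and incubated 1 hour at room temperature in the dark. Wells were counted for 30 seconds each on a TopCount after a 60-second delay, and percentage inhibition was calculated.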

Human opioid (ORL1) = biological target: T11, Human opioid (ORL1) (Homo sapiens, UniProt P41146); assay: Radioligand binding, human opioid ORL1 membranes, FlashPlate, [125I]-Nociceptin; conditions: compound at 10 μM, [125I]-Nociceptin; for A10: inhibition of radioligand binding: FlashPlate
T11 construct: purchased Perkin Elmer Biosignal
T11 sequence (P41146 whole entry): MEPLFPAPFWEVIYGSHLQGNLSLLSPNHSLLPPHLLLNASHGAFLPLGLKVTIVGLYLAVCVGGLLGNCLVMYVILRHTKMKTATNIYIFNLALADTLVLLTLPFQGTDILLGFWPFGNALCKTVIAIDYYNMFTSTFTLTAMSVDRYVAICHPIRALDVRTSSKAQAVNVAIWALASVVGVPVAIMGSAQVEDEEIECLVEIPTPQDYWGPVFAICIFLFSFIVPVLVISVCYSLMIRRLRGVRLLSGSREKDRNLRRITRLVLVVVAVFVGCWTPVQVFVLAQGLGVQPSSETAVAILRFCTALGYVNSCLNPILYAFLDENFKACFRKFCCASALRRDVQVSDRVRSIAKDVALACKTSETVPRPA
Procedure, shortened: as §2

T1 sequence (P25103 whole entry): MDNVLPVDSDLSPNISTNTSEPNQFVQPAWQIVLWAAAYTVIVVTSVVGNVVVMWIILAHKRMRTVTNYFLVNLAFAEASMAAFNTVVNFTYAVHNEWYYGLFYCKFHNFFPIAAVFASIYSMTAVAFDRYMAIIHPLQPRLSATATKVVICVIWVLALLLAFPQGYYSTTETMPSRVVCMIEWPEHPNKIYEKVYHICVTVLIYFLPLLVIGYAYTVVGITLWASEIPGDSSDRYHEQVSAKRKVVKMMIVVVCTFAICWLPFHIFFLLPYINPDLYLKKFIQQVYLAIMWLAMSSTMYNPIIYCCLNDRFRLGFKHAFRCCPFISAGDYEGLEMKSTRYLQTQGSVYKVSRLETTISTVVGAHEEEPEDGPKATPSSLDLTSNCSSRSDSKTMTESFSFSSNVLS

SMILES	A8: inhibition of radioligand binding (Human neurokinin (NK1))	A2: inhibition of radioligand binding (Human κ-Opioid (KOP))	A1: inhibition of radioligand binding (Human δ-opioid (DOP))	A3: inhibition of radioligand binding (Human Melanocortin (MC3))	A4: inhibition of radioligand binding (Human Melanocortin (MC4))	A5: inhibition of radioligand binding (Human melanocortin (MC5))	A6: inhibition of radioligand binding [1]	A7: inhibition of radioligand binding (Human μ-opioid (MOP))	A9: inhibition of radioligand binding [2]	A11: inhibition of radioligand binding (Mouse urotensin (mUR2))	A10: inhibition of radioligand binding (Human opioid (ORL1))	A8: inhibition of radioligand binding, human neurokinin (NK1) (Human neurokinin (NK1))	A2: inhibition of radioligand binding, human κ-opioid (KOP) (Human κ-Opioid (KOP))	A1: inhibition of radioligand binding, human δ-opioid (DOP) (Human δ-opioid (DOP))	A3: inhibition of radioligand binding, human melanocortin (MC3) (Human Melanocortin (MC3))	A4: inhibition of radioligand binding, human melanocortin (MC4) (Human Melanocortin (MC4))	A6: inhibition of radioligand binding, human melanin-concentrating hormone (MCH1) ([1]; [125I]-S36057)	A7: inhibition of radioligand binding, human μ-opioid (MOP) (Human μ-opioid (MOP))	A9: inhibition of radioligand binding, human neuropeptide Y (NPY-Y1) [2]	A11: inhibition of radioligand binding, mouse urotensin (mUR2) (Mouse urotensin (mUR2))	also measured
CSC1O[C@H](COCc2ccc(-c3ccccc3)cc2)[C@@H](O)[C@@H](OCc2ccc(Cl)cc2)[C@H]1NC(=O)CCCN (stereo partly shown) [compound 278]	+ (“+” indicates greater than 50% inhibition at 10 μM)	− (“−” indicates less than 50% inhibition at 10 μM)	− (“−” indicates less than 50% inhibition at 10 μM)	− (“−” indicates less than 50% inhibition at 10 μM)	− (“−” indicates less than 50% inhibition at 10 μM)	− (“−” indicates less than 50% inhibition at 10 μM)	− (“−” indicates less than 50% inhibition at 10 μM)	− (“−” indicates less than 50% inhibition at 10 μM)	− (“−” indicates less than 50% inhibition at 10 μM)	− (“−” indicates less than 50% inhibition at 10 μM)	− (“−” indicates less than 50% inhibition at 10 μM)										
CO[C@H]1[C@H](O)[C@@H](COCc2ccc3ccccc3c2)OC(OCc2ccc(Cl)cc2)[C@@H]1NC(=O)C1CCN(C(=N)N)CC1 (stereo partly shown) [compound 354]												+ (“+” indicates greater than 50% inhibition at 10 μM)	− (“−” indicates less than 50% inhibition at 10 μM)	− (“−” indicates less than 50% inhibition at 10 μM)	− (“−” indicates less than 50% inhibition at 10 μM)	+ (“+” indicates greater than 50% inhibition at 10 μM)	− (“−” indicates less than 50% inhibition at 10 μM)	− (“−” indicates less than 50% inhibition at 10 μM)	− (“−” indicates less than 50% inhibition at 10 μM)	− (“−” indicates less than 50% inhibition at 10 μM)	A5: inhibition of radioligand binding, human melanocortin (MC5) (Human melanocortin (MC5)): + (“+” indicates greater than 50% inhibition at 10 μM); A10: inhibition of radioligand binding, human opioid (ORL1) (Human opioid (ORL1)): − (“−” indicates less than 50% inhibition at 10 μM)
COCC1OC(OCc2ccc(Cl)cc2)C(NC(=O)CNC(=N)N)C(OCc2ccc(Cl)cc2)C1O (stereo not shown) [compound 200]	+ (“+” indicates greater than 50% inhibition at 10 μM)	− (“−” indicates less than 50% inhibition at 10 μM)	− (“−” indicates less than 50% inhibition at 10 μM)	+ (“+” indicates greater than 50% inhibition at 10 μM)	+ (“+” indicates greater than 50% inhibition at 10 μM)	+ (“+” indicates greater than 50% inhibition at 10 μM)	− (“−” indicates less than 50% inhibition at 10 μM)	− (“−” indicates less than 50% inhibition at 10 μM)	− (“−” indicates less than 50% inhibition at 10 μM)	− (“−” indicates less than 50% inhibition at 10 μM)	− (“−” indicates less than 50% inhibition at 10 μM)										
CO[C@H]1[C@H](O)[C@@H](COCc2cccc(O)c2)OC(OCc2ccccc2)[C@@H]1NC(=O)CCCNC(=N)N (stereo partly shown) [compound 154]																					A8 radioligand binding, percentage inhibition (Human neurokinin (NK1)): + (“+” indicates greater than 50% inhibition at 10 μM); A2 radioligand binding, percentage inhibition (Human κ-Opioid (KOP)): − (“−” indicates less than 50% inhibition at 10 μM); A1 radioligand binding, percentage inhibition (Human δ-opioid (DOP)): − (“−” indicates less than 50% inhibition at 10 μM); A3 radioligand binding, percentage inhibition (Human Melanocortin (MC3)): − (“−” indicates less than 50% inhibition at 10 μM); A4 radioligand binding, percentage inhibition (Human Melanocortin (MC4)): − (“−” indicates less than 50% inhibition at 10 μM); A5 radioligand binding, percentage inhibition (Human melanocortin (MC5)): − (“−” indicates less than 50% inhibition at 10 μM); A6 radioligand binding, percentage inhibition ([1]; [125I]-S36057): − (“−” indicates less than 50% inhibition at 10 μM); A7 radioligand binding, percentage inhibition (Human μ-opioid (MOP)): − (“−” indicates less than 50% inhibition at 10 μM); A9 radioligand binding, percentage inhibition [2]: − (“−” indicates less than 50% inhibition at 10 μM); A11 radioligand binding, percentage inhibition (Mouse urotensin (mUR2)): − (“−” indicates less than 50% inhibition at 10 μM); A10 radioligand binding, percentage inhibition (Human opioid (ORL1)): − (“−” indicates less than 50% inhibition at 10 μM)
NCCCC(=O)NC1C(OCc2ccc(Cl)cc2)OC(COCc2ccccc2)C(O)C1OCc1ccccc1 (single isomer, unassigned) [compound 504]												+ (“+” indicates greater than 50% inhibition at 10 μM)	− (“−” indicates less than 50% inhibition at 10 μM)	− (“−” indicates less than 50% inhibition at 10 μM)	− (“−” indicates less than 50% inhibition at 10 μM)	− (“−” indicates less than 50% inhibition at 10 μM)	− (“−” indicates less than 50% inhibition at 10 μM)	− (“−” indicates less than 50% inhibition at 10 μM)	− (“−” indicates less than 50% inhibition at 10 μM)	− (“−” indicates less than 50% inhibition at 10 μM)	A5: inhibition of radioligand binding, human melanocortin (MC5) (Human melanocortin (MC5); 10 µM): − (“−” indicates less than 50% inhibition at 10 μM); A10: inhibition of radioligand binding, human opioid (ORL1) (Human opioid (ORL1); 10 µM): + (“+” indicates greater than 50% inhibition at 10 μM)
